Measured values reported in paper PMC5218480 (PLoS ONE, 2017).

System: MV-4-11 cells
Experiment: Gene expression microarray analysis (Affymetrix PrimeView) and GSEA
Format: cell-based, human
Design: RFU PODN (11730768_x_at) / Fold change /veh PODN (11730768_x_at) / RFU LINC00158 (11744669_a_at) / Fold change /veh LINC00158 (11744669_a_at) / RFU DUSP10 (11751237_a_at) / Fold change /veh DUSP10 (11751237_a_at) / RFU ID3 (11757404_x_at) / Fold change /veh ID3 (11757404_x_at) / RFU PLEKHG5 (11737974_s_at) / Fold change /veh PLEKHG5 (11737974_s_at) / RFU LRRC4B (11730491_at) / Fold change /veh LRRC4B (11730491_at) / RFU GIMAP4 (11747438_a_at) / Fold change /veh GIMAP4 (11747438_a_at) / RFU KRT8 (11758183_x_at) / Fold change /veh KRT8 (11758183_x_at) / RFU CNN1 (11734310_a_at) / Fold change /veh CNN1 (11734310_a_at) / RFU VPS37D (11726825_at) / Fold change /veh VPS37D (11726825_at) / RFU C10orf10 (11716522_x_at) / Fold change /veh C10orf10 (11716522_x_at) / RFU KIR2DL2 /// KIR2DL4 /// KIR2DL5A /// KIR2DL5B /// KIR2DS1 /// KIR2DS2 /// KIR2DS3 /// KIR2DS4 /// KIR3DL3 /// KIR3DL3 /// KIR3DS1 (11738374_at) / Fold change /veh KIR2DL2 /// KIR2DL4 /// KIR2DL5A /// KIR2DL5B /// KIR2DS1 /// KIR2DS2 /// KIR2DS3 /// KIR2DS4 /// KIR3DL3 /// KIR3DL3 /// KIR3DS1 (11738374_at) / RFU C1QL1 (11718748_at) / Fold change /veh C1QL1 (11718748_at) / RFU TMPRSS4 (11747572_a_at) / Fold change /veh TMPRSS4 (11747572_a_at) / RFU HAMP (11756126_x_at) / Fold change /veh HAMP (11756126_x_at) / RFU RNFT2 (11725882_a_at) / Fold change /veh RNFT2 (11725882_a_at) / RFU NR4A2 (11747474_a_at) / Fold change /veh NR4A2 (11747474_a_at) / RFU ABCC12 (11746883_a_at) / Fold change /veh ABCC12 (11746883_a_at) / RFU TMEM136 (11760407_x_at) / Fold change /veh TMEM136 (11760407_x_at) / RFU CLDN22 /// WWC2 (11732394_at) / Fold change /veh CLDN22 /// WWC2 (11732394_at) / RFU HLA-DPB1 (11760878_x_at) / Fold change /veh HLA-DPB1 (11760878_x_at) / RFU SPINT1 (11716480_a_at) / Fold change /veh SPINT1 (11716480_a_at) / RFU GAP43 (11754022_s_at) / Fold change /veh GAP43 (11754022_s_at) / RFU A4GNT (11735810_at) / Fold change /veh A4GNT (11735810_at) / RFU PRB3 (11715151_x_at) / Fold change /veh PRB3 (11715151_x_at) / RFU TUBB4B (11761932_at) / Fold change /veh TUBB4B (11761932_at) / RFU CAPN14 (11732068_a_at) / Fold change /veh CAPN14 (11732068_a_at) / RFU TMCC2 (11721928_a_at) / Fold change /veh TMCC2 (11721928_a_at) / RFU IRGQ (11745062_a_at) / Fold change /veh IRGQ (11745062_a_at) / RFU FAM174B (11720279_a_at) / Fold change /veh FAM174B (11720279_a_at) / RFU TMPRSS4 (11748680_a_at) / Fold change /veh TMPRSS4 (11748680_a_at) / RFU FAM212B (11763350_a_at) / Fold change /veh FAM212B (11763350_a_at) / RFU PLEKHG5 (11743358_a_at) / Fold change /veh PLEKHG5 (11743358_a_at) / RFU ZSCAN30 (11745921_a_at) / Fold change /veh ZSCAN30 (11745921_a_at) / RFU CMKLR1 (11741424_a_at) / Fold change /veh CMKLR1 (11741424_a_at) / RFU LOC101060620 /// MAPK8IP1 (11723275_at) / Fold change /veh LOC101060620 /// MAPK8IP1 (11723275_at) / RFU SPTSSB (11747773_x_at) / Fold change /veh SPTSSB (11747773_x_at) / RFU PRSS12 (11739890_at) / Fold change /veh PRSS12 (11739890_at) / RFU BIN1 (11741810_x_at) / Fold change /veh BIN1 (11741810_x_at) / RFU WNT11 (11732464_a_at) / Fold change /veh WNT11 (11732464_a_at) / RFU C10orf10 (11716521_a_at) / Fold change /veh C10orf10 (11716521_a_at) / RFU C5orf56 (11738089_at) / Fold change /veh C5orf56 (11738089_at) / RFU CYB561 (11721691_x_at) / Fold change /veh CYB561 (11721691_x_at) / RFU ANKRD19P (11752326_a_at) / Fold change /veh ANKRD19P (11752326_a_at) / RFU OR2T12 /// OR2T33 /// OR2T8 (11738714_s_at) / Fold change /veh OR2T12 /// OR2T33 /// OR2T8 (11738714_s_at) / RFU VCAN (11748164_a_at) / Fold change /veh VCAN (11748164_a_at) / RFU JSRP1 (11732532_at) / Fold change /veh JSRP1 (11732532_at) / RFU KRTAP10-11 (11738290_x_at) / Fold change /veh KRTAP10-11 (11738290_x_at) / RFU MYO3A (11730013_a_at) / Fold change /veh MYO3A (11730013_a_at) / RFU EBF3 (11725865_a_at) / Fold change /veh EBF3 (11725865_a_at) / RFU CAMK2N1 (11719241_x_at) / Fold change /veh CAMK2N1 (11719241_x_at) / RFU C5orf56 (11738088_a_at) / Fold change /veh C5orf56 (11738088_a_at) / RFU OLFML3 (11715873_a_at) / Fold change /veh OLFML3 (11715873_a_at) / RFU LOC100653217 /// NTM (11731650_a_at) / Fold change /veh LOC100653217 /// NTM (11731650_a_at) / RFU MAPK11 (11762145_a_at) / Fold change /veh MAPK11 (11762145_a_at) / RFU FIZ1 (11724087_x_at) / Fold change /veh FIZ1 (11724087_x_at) / RFU OASL (11726364_x_at) / Fold change /veh OASL (11726364_x_at) / RFU SOX15 (11748057_x_at) / Fold change /veh SOX15 (11748057_x_at) / RFU CD79A (11719716_a_at) / Fold change /veh CD79A (11719716_a_at) / RFU HIST1H1D (11736915_at) / Fold change /veh HIST1H1D (11736915_at) / RFU CASKIN2 (11723855_a_at) / Fold change /veh CASKIN2 (11723855_a_at) / RFU LOC730098 (11760151_x_at) / Fold change /veh LOC730098 (11760151_x_at) / RFU OR4N2 (11742367_at) / Fold change /veh OR4N2 (11742367_at) / RFU PRRT2 (11749266_a_at) / Fold change /veh PRRT2 (11749266_a_at) / RFU SNX32 (11753110_a_at) / Fold change /veh SNX32 (11753110_a_at) / RFU CDHR5 (11726645_a_at) / Fold change /veh CDHR5 (11726645_a_at) / RFU RCAN1 (11760418_a_at) / Fold change /veh RCAN1 (11760418_a_at) / RFU FAM167A (11723789_a_at) / Fold change /veh FAM167A (11723789_a_at) / RFU FAM26E (11764081_at) / Fold change /veh FAM26E (11764081_at) / RFU ISYNA1 (11749810_s_at) / Fold change /veh ISYNA1 (11749810_s_at) / RFU ACY1 (11761880_at) / Fold change /veh ACY1 (11761880_at) / RFU 11764098_at / Fold change /veh 11764098_at / RFU SAMD14 (11745864_x_at) / Fold change /veh SAMD14 (11745864_x_at) / RFU NPB (11741838_a_at) / Fold change /veh NPB (11741838_a_at) / RFU TMPRSS6 (11731388_a_at) / Fold change /veh TMPRSS6 (11731388_a_at) / RFU KRTAP10-2 (11738614_at) / Fold change /veh KRTAP10-2 (11738614_at) / RFU ARHGAP8 /// PRR5-ARHGAP8 (11727945_x_at) / Fold change /veh ARHGAP8 /// PRR5-ARHGAP8 (11727945_x_at) / RFU KRTAP5-7 /// NADSYN1 (11734609_at) / Fold change /veh KRTAP5-7 /// NADSYN1 (11734609_at) / RFU RASL12 (11751679_a_at) / Fold change /veh RASL12 (11751679_a_at) / RFU CDKN2B (11736163_a_at) / Fold change /veh CDKN2B (11736163_a_at) / RFU PRF1 (11729649_at) / Fold change /veh PRF1 (11729649_at) / RFU, ZNF638 /// ZNF638-IT1 / Fold change vs veh, ZNF638 /// ZNF638-IT1 / RFU, PANK3 / Fold change vs veh, PANK3 / RFU, SH3YL1 / Fold change vs veh, SH3YL1 / RFU, ZEB2 / Fold change vs veh, ZEB2 / RFU, NRIP1 / Fold change vs veh, NRIP1 / RFU, PTTG1IP / Fold change vs veh, PTTG1IP / RFU, CAPN2 / Fold change vs veh, CAPN2 / RFU, MED14 / Fold change vs veh, MED14 / RFU, SNORA58 / Fold change vs veh, SNORA58 / RFU, C1orf63 / Fold change vs veh, C1orf63 / RFU, LRRFIP1 / Fold change vs veh, LRRFIP1 / RFU, NDUFAF7 / Fold change vs veh, NDUFAF7 / RFU, SLC12A2 / Fold change vs veh, SLC12A2 / RFU, IBTK / Fold change vs veh, IBTK / RFU, ESF1 / Fold change vs veh, ESF1 / Fold change vs veh, TMEM50B / RFU, TAOK1 / Fold change vs veh, TAOK1 / RFU, ACBD3 / Fold change vs veh, ACBD3 / RFU, TMA16 / Fold change vs veh, TMA16 / RFU, RWDD3 / Fold change vs veh, RWDD3 / RFU, BCAT1 / Fold change vs veh, BCAT1 / RFU, EDEM3 / Fold change vs veh, EDEM3 / RFU, TMEM33 / Fold change vs veh, TMEM33 / RFU, WDR75 / Fold change vs veh, WDR75 / RFU, AHCTF1 / Fold change vs veh, AHCTF1 / RFU, TFRC / Fold change vs veh, TFRC / RFU, ZDHHC17 / Fold change vs veh, ZDHHC17 / RFU, NOM1 / Fold change vs veh, NOM1 / RFU, ARL8B / Fold change vs veh, ARL8B / RFU, ZBTB11 / Fold change vs veh, ZBTB11 / RFU, TAMM41 / Fold change vs veh, TAMM41 / RFU, KIAA1704 /// LOC100996395 / Fold change vs veh, KIAA1704 /// LOC100996395 / RFU, ING1 / Fold change vs veh, ING1 / RFU, TRMT61B / Fold change vs veh, TRMT61B / RFU, FUBP3 / Fold change vs veh, FUBP3 / RFU, TP53 / Fold change vs veh, TP53 / RFU, TNKS2 / Fold change vs veh, TNKS2 / RFU, ZFP14 / Fold change vs veh, ZFP14 / RFU, ACTR2 / Fold change vs veh, ACTR2 / RFU, PPP3R1 / Fold change vs veh, PPP3R1 / RFU, PIK3R1 / Fold change vs veh, PIK3R1 / RFU, HNRNPA1 / Fold change vs veh, HNRNPA1 / RFU, RNF170 / Fold change vs veh, RNF170 / RFU, ZNF28 / Fold change vs veh, ZNF28 / RFU, RNGTT / Fold change vs veh, RNGTT / RFU, OGT / Fold change vs veh, OGT / RFU, BRD1 / Fold change vs veh, BRD1 / RFU, MARS / Fold change vs veh, MARS / RFU, ZNF655 / Fold change vs veh, ZNF655 / RFU, FAHD1 / Fold change vs veh, FAHD1 / RFU, BDP1 / Fold change vs veh, BDP1 / RFU, LRRCC1 / Fold change vs veh, LRRCC1 / RFU, ARID1A / Fold change vs veh, ARID1A / RFU, ZNF146 / Fold change vs veh, ZNF146 / RFU, ZNF330 / Fold change vs veh, ZNF330 / RFU, GPN3 / Fold change vs veh, GPN3 / RFU, C9orf123 / Fold change vs veh, C9orf123 / RFU, N4BP2L2 / Fold change vs veh, N4BP2L2 / RFU, ARFIP1 / Fold change vs veh, ARFIP1 / RFU, FAM179B / Fold change vs veh, FAM179B / RFU, BCL10 / Fold change vs veh, BCL10 / RFU, UHRF1BP1L / Fold change vs veh, UHRF1BP1L / RFU, BET1 / Fold change vs veh, BET1 / RFU, CNOT2 / Fold change vs veh, CNOT2 / RFU, ZNF268 / Fold change vs veh, ZNF268 / Fold change vs veh, ZNF507 / RFU, DGCR2 / Fold change vs veh, DGCR2 / RFU, WDSUB1 / Fold change vs veh, WDSUB1 / Fold change vs veh, HSP90B1 /// MIR3652 / RFU, ADSS / Fold change vs veh, ADSS / RFU, GK / Fold change vs veh, GK / RFU, ZNF148 / Fold change vs veh, ZNF148 / RFU, TAF9 / Fold change vs veh, TAF9 / RFU, SLC1A5 / Fold change vs veh, SLC1A5 / RFU, SLMO2 / Fold change vs veh, SLMO2 / RFU, ABCC4 / Fold change vs veh, ABCC4 / RFU, LOC101060439 /// RAP1B / Fold change vs veh, LOC101060439 /// RAP1B / RFU, RFX7 / Fold change vs veh, RFX7 / RFU, GTPBP10 / Fold change vs veh, GTPBP10 / RFU, CNEP1R1 / Fold change vs veh, CNEP1R1 / RFU, BIVM-ERCC5 /// ERCC5 / Fold change vs veh, BIVM-ERCC5 /// ERCC5 / RFU, ILF3 / Fold change vs veh, ILF3 / RFU 11762660_at / Fold change /veh 11762660_at / RFU VCAN (11757783_s_at) / Fold change /veh VCAN (11757783_s_at) / RFU DDX43 (11728927_at) / Fold change /veh DDX43 (11728927_at) / RFU KRT8 (11758188_x_at) / Fold change /veh KRT8 (11758188_x_at) / RFU NKD1 (11759106_at) / Fold change /veh NKD1 (11759106_at) / RFU SRD5A1 (11742802_a_at) / Fold change /veh SRD5A1 (11742802_a_at) / RFU TPSAB1 /// TPSB2 (11721975_s_at) / Fold change /veh TPSAB1 /// TPSB2 (11721975_s_at) / RFU GSTM3 (11746129_a_at) / Fold change /veh GSTM3 (11746129_a_at) / RFU IL23R (11737362_x_at) / Fold change /veh IL23R (11737362_x_at) / RFU TMEM51 (11727254_a_at) / Fold change /veh TMEM51 (11727254_a_at) / RFU PIWIL2 (11732686_x_at) / Fold change /veh PIWIL2 (11732686_x_at) / RFU ORM1 (11744905_x_at) / Fold change /veh ORM1 (11744905_x_at) / RFU CCDC152 (11743942_at) / Fold change /veh CCDC152 (11743942_at) / RFU ECM1 (11717891_a_at) / Fold change /veh ECM1 (11717891_a_at) / RFU IL23R (11748794_a_at) / Fold change /veh IL23R (11748794_a_at) / RFU TNFAIP8L3 (11732012_x_at) / Fold change /veh TNFAIP8L3 (11732012_x_at) / RFU MBOAT4 (11741988_at) / Fold change /veh MBOAT4 (11741988_at) / RFU 11764193_at / Fold change /veh 11764193_at / RFU TMEM53 (11763286_at) / Fold change /veh TMEM53 (11763286_at) / RFU MAGEB2 (11727129_at) / Fold change /veh MAGEB2 (11727129_at) / RFU TMEM200A (11744735_a_at) / Fold change /veh TMEM200A (11744735_a_at) / RFU CCDC152 (11751479_a_at) / Fold change /veh CCDC152 (11751479_a_at) / RFU FAM211A (11726209_a_at) / Fold change /veh FAM211A (11726209_a_at) / RFU RGS16 (11746705_a_at) / Fold change /veh RGS16 (11746705_a_at) / RFU VCAN (11755009_s_at) / Fold change /veh VCAN (11755009_s_at) / RFU RHOB (11743442_s_at) / Fold change /veh RHOB (11743442_s_at) / RFU RGS16 (11720943_a_at) / Fold change /veh RGS16 (11720943_a_at) / RFU RGS16 (11720944_at) / Fold change /veh RGS16 (11720944_at) / RFU, VPS4B / Fold change vs veh, VPS4B / RFU, CREB1 / Fold change vs veh, CREB1 / RFU, DNAJC13 / Fold change vs veh, DNAJC13 / RFU, GNAQ / Fold change vs veh, GNAQ / RFU, CDK5R1 / Fold change vs veh, CDK5R1 / RFU, ZRANB3 / Fold change vs veh, ZRANB3 / RFU, CUL4A / Fold change vs veh, CUL4A / RFU, CCNY / Fold change vs veh, CCNY / RFU, UFL1 / Fold change vs veh, UFL1 / RFU, COG3 / Fold change vs veh, COG3 / RFU, DIAPH2 / Fold change vs veh, DIAPH2 / RFU, SKA2 / Fold change vs veh, SKA2 / RFU, AFF3 / Fold change vs veh, AFF3 / RFU, LMF1 / Fold change vs veh, LMF1 / RFU, IPO11 / Fold change vs veh, IPO11 / RFU, DFFB / Fold change vs veh, DFFB / RFU, FOXP1 / Fold change vs veh, FOXP1 / RFU, CARD8 / Fold change vs veh, CARD8 / RFU, STRN3 / Fold change vs veh, STRN3 / RFU, ADK / Fold change vs veh, ADK / RFU, RASSF2 / Fold change vs veh, RASSF2 / RFU, WIPF1 / Fold change vs veh, WIPF1 / RFU, LARP1B / Fold change vs veh, LARP1B / RFU, RASA1 / Fold change vs veh, RASA1 / RFU, RB1 / Fold change vs veh, RB1 / RFU, PPFIA1 / Fold change vs veh, PPFIA1 / RFU, MAT2A / Fold change vs veh, MAT2A / RFU, CCT5 / Fold change vs veh, CCT5 / RFU, WDR92 / Fold change vs veh, WDR92 / RFU, CUX1 / Fold change vs veh, CUX1 / RFU, TTC7A / Fold change vs veh, TTC7A / RFU, TMEM135 / Fold change vs veh, TMEM135 / RFU, DEPTOR / Fold change vs veh, DEPTOR / RFU, CPM / Fold change vs veh, CPM / RFU, DNAJB6 / Fold change vs veh, DNAJB6 / RFU, CACNA2D3 / Fold change vs veh, CACNA2D3 / RFU, DTX4 / Fold change vs veh, DTX4 / RFU, TFCP2 / Fold change vs veh, TFCP2 / RFU, GMCL1 /// GMCL1P1 / Fold change vs veh, GMCL1 /// GMCL1P1 / RFU, AEBP2 / Fold change vs veh, AEBP2 / RFU, SNHG1 /// SNORD22 /// SNORD25 /// SNORD26 /// SNORD27 /// SNORD28 /// SNORD29 /// SNORD31 / Fold change vs veh, SNHG1 /// SNORD22 /// SNORD25 /// SNORD26 /// SNORD27 /// SNORD28 /// SNORD29 /// SNORD31 / Fold change (Aza/veh), C12orf56 (ProbeSet 11735607_a_at) / Fold change (ACY-1035/veh), C12orf56 (ProbeSet 11735607_a_at) / Fold change (Aza/veh), FGFR1OP (ProbeSet 11751329_s_at) / Fold change (ACY-1035/veh), FGFR1OP (ProbeSet 11751329_s_at) / Fold change (Aza/veh), VPS36 (ProbeSet 11739960_a_at) / Fold change (ACY-1035/veh), VPS36 (ProbeSet 11739960_a_at) / RFU SYPL1 (11715823_x_at) / Fold change /veh SYPL1 (11715823_x_at) / RFU IGFBP7 (11715501_s_at) / Fold change /veh IGFBP7 (11715501_s_at) / RFU REEP3 (11722064_at) / Fold change /veh REEP3 (11722064_at) / RFU IGLL1 (11728026_x_at) / Fold change /veh IGLL1 (11728026_x_at): dose or concentration left out as unconfirmed
Conditions: MV-4-11 cells, 48 hours

Nc1ncn([C@@H]2O[C@H](CO)[C@@H](O)[C@H]2O)c(=O)n1 [azacitidine]
Fold change /veh ISYNA1 (11749810_s_at): 1.06
